Experimental data from patent US6911542B2, “Pyrazino[1′,2′:1,6]pyrido[3,4b]indole derivatives” (Lilly Icos LLC., priority 2000, dated 2005).

Molecular target: T1, human recombinant PDE5 (Homo sapiens, UniProt O76074)
T1 construct: host or cells: Saccharomyces cerevisiae, protease-deficient strain BJ2-54 (ATCC 74465)
Test: cGMP-PDE one-step inhibition assay, human recombinant PDE5
Assay type: biochemical
Conditions: 0.15 μM 8-[H3]-cGMP, 30 min incubation
Protocol: The compounds of structural formula (I) were tested for an ability to inhibit PDE5. The ability of a compound to inhibit PDE5 activity is related to the IC50 value for the compound, i.e., the concentration of inhibitor required for 50% inhibition of enzyme activity. The IC50 value for compounds of structural formula (I) were determined using recombinant human PDE5.
The production of recombinant human PDEs and the IC50 determinations can be accomplished by well-known methods in the art. Exemplary methods are described as follows:
Recombinant production of human PDE1B, PDE2, PDE4A, PDE4B, PDE4C, PDE4D, PDE5, and PDE7 was carried out similarly to that described in Example 7 of U.S. Pat. No. 5,702,936, incorporated herein by reference, except that the yeast transformation vector employed, which is derived from the basic ADH2 plasmid described in Price et al., Methods in Enzymology, 185, pp. 308-318 (1990), incorporated yeast ADH2 promoter and terminator sequences and the Saccharomyces cerevisiae host was the protease-deficient strain BJ2-54 deposited on Aug. 31, 1998 with the American Type Culture Collection, Manassas, Va., under accession number ATCC 74465. Transformed host cells were grown in 2×SC-leu medium, pH 6.2, with trace metals, and vitamins. After 24 hours, YEP medium-containing glycerol was added to a final concentration of 2×YET/3% glycerol. Approximately 24 hr later, cells were harvested, washed, and stored at −70° C. […]
Cell pellets (29 g) were thawed on ice with an equal volume of Lysis Buffer (25 mM Tris HCl, pH 8, 5 mM MgCl2, 0.25 mM DTT, 1 mM benzamidine, and 10 μM ZnSO4). Cells were lysed in a Microfluidizer® (Microfluidics Corp.) using nitrogen at 20,000 psi. The lysate was centrifuged and filtered through 0.45 μm disposable filters. The filtrate was applied to a 150 mL column of Q SEPHAROSE® Fast-Flow (Pharmacia). The column was washed with 1.5 volumes of Buffer A (20 mM Bis-Tris Propane, pH 6.8, 1 mM MgCl2, 0.25 mM DTT, 10 μM ZnSO4) and eluted with a step gradient of 125 mM NaCl in Buffer A followed by a linear gradient of 125-1000 mM NaCl in Buffer A. Active fractions from the linear gradient were applied to a 180 mL hydroxyapatite column in Buffer B (20 mM Bis-Tris Propane (pH 6.8), 1 mM MgCl2, 0.25 mM DTT, 10 μM ZnSO4, and 250 mM KCl). After loading, the column was washed with 2 volumes of Buffer B and eluted with a linear gradient of 0-125 mM potassium phosphate in Buffer B. Active fractions were pooled, precipitated with 60% ammonium sulfate, and resuspended in Buffer C (20 mM Bis-Tris Propane, pH 6.8, 125 mM NaCl, 0.5 mM DTT, and 10 μM ZnSO4). The pool was applied to a 140 mL column of […]® S-300 HR and eluted with Buffer C. Active fractions were diluted to 50% glycerol and stored at −20° C.
(§1) cGMP-PDE activity of compounds of the present invention was measured using a one-step assay adapted from Wells et al., Biochim. Biophys. Acta, 384, 430 (1975). The reaction medium contained 50 mM Tris-HCl, pH 7.5, 5 mM magnesium acetate, 250 μg/ml 5′-Nucleotidase, 1 mM EGTA, and 0.15 μM 8-[H^3]-cGMP. Unless otherwise indicated, the enzyme used was a human recombinant PDE5 (ICOS Corp., Bothell, Wash.).
(§2) Compounds of the invention were dissolved in DMSO finally present at 2% in the assay.

**Q.** Which IC50 does the source give for `O=C1[C@H]2Cc3c([nH]c4ccccc34)[C@@H](c3ccc4c(c3)OCO4)N2C(=O)CN1O` [Example 2, (6R,12aR)-6-Benzo[1,3]dioxo-5-yl-2-hydroxy-2,3,6,7,12,12a-hexahydropyrazino[1′,2′:1,6]-pyrido[3,4-b]indole-1,4-dione] here?
**A.** 7.5 nM

**Q.** For `CCOCCCN1CC(=O)N2[C@H](c3ccc4c(c3)OCO4)c3[nH]c4ccccc4c3C[C@@H]2C1=O` [Example 39], which IC50 is on record?
**A.** 30 nM

**Q.** Which IC50 does the source give for `COC(=O)CN1CC(=O)N2[C@H](c3ccc4c(c3)OCO4)c3[nH]c4ccccc4c3C[C@@H]2C1=O` [Example 87] here?
**A.** 20 nM

Molecular target: T2, PDE5 obtained from bovine aorta (Bos taurus, UniProt Q28156)
T2 construct: from tissue; host or cells: bovine aorta
Test: cGMP-PDE inhibition assay using PDE5 obtained from bovine aorta
Assay type: biochemical
Conditions: read-out: PDE5 IC50 (Bov. aorta)
Protocol: as §1, §2

**Q.** For `COc1ccc([C@@H]2c3[nH]c4ccccc4c3C[C@@H]3C(=O)N(CCN(C)C)CC(=O)N23)cc1` [Example 9], which IC50 is on record?
**A.** 70 nM

**Q.** With `O=C1[C@H]2Cc3c([nH]c4ccccc34)[C@@H](c3ccc4c(c3)OCO4)N2C(=O)CN1CCO` [Example 10] as the compound, how does the IC50 read?
**A.** 5 nM

**Q.** With `COc1ccc([C@@H]2c3[nH]c4ccccc4c3C[C@@H]3C(=O)N(CCCN4CCN(C)CC4)CC(=O)N23)cc1` [Example 12] as the compound, how does the IC50 read?
**A.** 100 nM

**Q.** For `NC(=O)CN1CC(=O)N2[C@H](c3ccc4c(c3)OCO4)c3[nH]c4ccccc4c3C[C@@H]2C1=O` [Example 20], which IC50 is on record?
**A.** 10 nM

**Q.** For `COC(=O)CN1CC(=O)N2[C@H](c3ccc4c(c3)OCO4)c3[nH]c4ccccc4c3C[C@@H]2C1=O` [Example 19], which IC50 is on record?
**A.** 4 nM

**Q.** Which IC50 does the source give for `COc1ccc([C@@H]2c3[nH]c4ccccc4c3C[C@@H]3C(=O)N(CCCN(C)C)CC(=O)N23)cc1` [Example 11] here?
**A.** 650 nM

System: not given
Test: not given
Conditions: not given

**Q.** For `O=C1[C@H]2Cc3c([nH]c4ccccc34)[C@@H](c3ccc4c(c3)OCO4)N2C(=O)CN1O` [Example 2, (6R,12aR)-6-Benzo[1,3]dioxo-5-yl-2-hydroxy-2,3,6,7,12,12a-hexahydropyrazino[1′,2′:1,6]-pyrido[3,4-b]indole-1,4-dione], which melting point is on record?
**A.** 276 to 283 °C (dec.)
